Here are results for one compound from publication PMC8402032, “Unsymmetric Cisplatin-Based Pt(IV) Conjugates Containing a PARP-1 Inhibitor Pharmacophore Tested on Malignant Pleural Mesothelioma Cell Lines” (Molecules, 2021).

Holding throughout (assay type): cell-based, human
In assay [1] the test system is MSTO-211H (biphasic phenotype) malignant pleural mesothelioma cells. In words: Cell viability assay (Trypan blue dye exclusion), MSTO-211H. The settings on record: 72 h treatment. As for the experimental part: (§1) Complexes 6–9 were tested on a panel of human MPM cell lines together with CDDP and SAA1, added for comparison (Table 1). The half-maximal inhibitory concentration, IC50, was determined on MSTO-211H (biphasic phenotype), REN (epithelioid), BR95 (epithelioid), and MM98 (sarcomatoid) cancer cell lines to identify the most promising Pt(IV) conjugate to be further investigated. To determine the number of viable cells, the use of the dye exclusion assay was preferred to the colorimetric assay because of the heterogeneity in the energy metabolism between the different MPM cell lines. This may justify minor differences with respect to the previously published IC50 for CDDP [40].
(§2) Cells were seeded at a density of 10 × 10^4 cells per well in 6-well plates in RPMI medium supplemented with 10% fetal bovine serum (FBS), 100 μg mL^−1 streptomycin, and 10 μg mL^−1 penicillin and incubated overnight at 37 °C in a humidified environment containing 5% CO2 to allow adherence. Cisplatin was dissolved in 0.9% w/v aqueous NaCl brought to pH = 3 with HCl (final stock concentration 1 mM). The Pt(IV) complexes were dissolved in DMSO (final stock concentration 5 mM); the resulting solutions were microfiltered (0.45 μm) and their Pt content was checked by ICP-MS (see Section 3.5.2). These mother solutions were diluted in complete medium to the required concentration range.
(§3) Following 72 h of treatment with the diluent of the compound (Ctrl) or different doses of the Pt compounds, cells were trypsinized and stained with Trypan blue. The number of cells considered viable (unstained cells) was counted in a Bürker haemocytometer within 5 min after staining.

The test system of assay [2] is BR95 (epithelioid) malignant pleural mesothelioma cells. In words: Cell viability assay (Trypan blue dye exclusion), BR95. Particulars: 72 h treatment. As for the experimental part: as §1, §2, §3
Another assay has as its system PARP-1. In words: Western blot analysis of PARP-1 expression in MSTO-211H cells. The settings on record: 72 h, equitoxic (IC50) concentrations, whole cell lysate. As for the experimental part:
It is necessary to verify how much the presence of the bulky Fmoc group might affect the recognition of the PARP catalytic domain. It is important to recall that all PARPis designed as analogues of nicotinamide must contain a primary or secondary amide. Indeed, this is the case of 6 [27]. The effects of compounds 6–9 on the expression of PARP-1 were evaluated by treating MSTO-211H cells for 72 h with equitoxic (at their IC50) concentrations of complexes, followed by Western blot analysis of whole cell lysate. […] First of all, the higher cellular uptake of 6 and 7 increases the intracellular concentration of the Pt metabolite and, in particular, of the ligands, potentially PARPis (synergistic cellular accumulation). […]
For protein analysis, cells were extracted with 1% NP-40 lysis buffer (50 mM Tris-HCl pH 8.5 containing 1% NP-40, 150 mM NaCl, 10 mM EDTA, 10 mM NaF, 10 mM Na4P2O7, and 0.4 mM Na3VO4) with freshly added protease inhibitors (10 μg mL^−1 leupeptin, 4 μg mL^−1 pepstatin, and 0.1 U mL^−1 aprotinin). […] Following SDS-PAGE, proteins were transferred to nitrocellulose, reacted with specific antibodies, and then detected with peroxidase-conjugate secondary antibodies and chemioluminescent ECL reagent. Digital images were taken with the Bio-Rad ChemiDocTM Touch Imaging System and quantified using Bio-Rad Image Lab 5.2.1. […]
A general note: Immunoblotting shows a protein as a band on a membrane.

The subject of assay [3] is MSTO-211H multicellular spheroids (MCS). In words: Apoptosis in MSTO-211H multicellular spheroids. Particulars: MSTO-211H MCS, 10 μM, 72 h; spheroid morphology, PARP-1 cleavage, BIM and PUMA induction. As for the experimental part:
The capability of compound 6 to induce apoptosis was confirmed also when MSTO-211H cells were cultured as multicellular spheroids (MCSs). MCSs and other similar 3D cultures represent an improvement of classical 2D conditions, having a more complex architectural structure and better bio-mimicking of the in vivo microenvironment. Although they suffer many of the limitations of the 2D cultures, they are a powerful tool to narrow down the gap between the in vitro and in vivo models.
Multicellular spheroids were generated in non-adsorbent round-bottomed 96-well plates, as previously described. The 96-well plates were coated with a 1:24 dilution of polyHEMA (120 mg mL^−1) in 95% ethanol and dried at 37 °C for 24 h. Before use, plates were sterilized by UV light for 30 min. For generation of multicellular spheroids, 1 × 10^4 cells were added into each well of a polyHEMA-coated 96-well plate and placed in a 37 °C humidified incubator with 5% CO2. Every 24 h, 50% of supernatant was replaced with fresh medium.
Figure 5 Compound 6 induces apoptosis in MSTO-211H multicellular spheroids (MCS). (A) Representative microscope images of MCS treated for 72 h with diluent (Ctrl) or 10 μM 6. Scale bar = 100 μm. (B) Representative Western blot showing PARP-1 cleavage in MSTO-211H MCS treated with 6. Tubulin was used as loading control. […]

Regarding `CC(=O)[O][Pt]([NH2])([NH2])([Cl])([Cl])[O]C(=O)CCNC(=O)c1cccc(NC(=O)OCC2c3ccccc3-c3ccccc32)c1` [Compound 6, (OC-6-44)-Acetato[3-(3-(fmoc-amino)-benzamido)-propanoato]-diammine-dichlorido-platinum(IV)], in assay [1], the “ratio IC50 (cisplatin)/IC50 (Pt(IV) complex), MSTO-211H” value stood at 1.6. Besides, the IC50 in assay [1] (mean ± sd, read-out: IC50 MSTO-211H) is 690 ± 30 nM; in assay [2] (mean ± sd), 830 ± 40 nM. In addition, in assay [2], the “ratio IC50 (cisplatin)/IC50 (Pt(IV) complex), BR95” value stood at 2.6. Also, the PARP-1 expression result in the assay on PARP-1 is reported as “lower expression of PARP-1 in the series”. The “apoptosis in multicellular spheroids” value in assay [3] is recorded as “apoptotic death was evidenced”.

The term IC50 denotes the point on the concentration scale where inhibition reaches its midpoint.
